Laboratory results taken from publication PMC5931576, “Allosteric modulation of the farnesoid X receptor by a small molecule” (Scientific Reports, 2018).

Tests used:
RXRα = system: T1, RXRα; assay: Gal4-DBD-RXRα-LBD hybrid reporter gene assay; assay type: cell-based, human
T1 construct: expressed in transfected cells; host or cells: HEK293T
Excerpt: (§1) The Gal4-fusion receptor plasmids pFA-CMV-hPPARα-LBD[34], pFA-CMV-hPPARγ-LBD[34], pFA-CMV-hPPARδ-LBD[34], pFA-CMV-hLXRα-LBD[35], pFA-CMV-hLXRβ-LBD[35], pFA-CMV-hRXRα-LBD[36], pFA-CMV-hRXRβ-LBD[36], pFA-CMV-hRXRγ-LBD[36], pFA-CMV-hRARα-LBD[36], pFA-CMV-hRARβ-LBD[36], pFA-CMV-hRARγ-LBD[36], pFA-CMV-hVDR-LBD[36] and pFA-CMV-hCAR-LBD[36] coding for the hinge region and ligand binding domain (LBD) of the canonical isoform of the respective nuclear receptor have been reported previously. pFR-Luc (Stratagene) was used as reporter plasmid and pRL-SV40 (Promega) for normalization of transfection efficiency and cell growth.
(§2) HEK293T cells were grown in DMEM high glucose, supplemented with 10% FCS, sodium pyruvate (1 mM), penicillin (100 U/mL) and streptomycin (100 μg/mL) at 37 °C and 5% CO2. The day before transfection, HEK293T cells were seeded in 96-well plates (2.5·10^4 cells/well). Before transfection, medium was changed to Opti-MEM without supplements. Transient transfection was carried out using Lipofectamine LTX reagent (Invitrogen) according to the manufacturer’s protocol with pFR-Luc (Stratagene), pRL-SV40 (Promega) and pFA-CMV-hNR-LBD. […] Luminescence was measured with an Infinite M200 luminometer (Tecan Deutschland GmbH) or a Tecan Spark 10 M luminometer (Tecan). […]

Abl = assay: Kinase inhibition assay (radiometric or HTRF); assay type: biochemical
[1] = system: PPARα/γ/δ, LXRα/β, RXRα/β/γ, RARα/β/γ, VDR and CAR; assay: Hybrid reporter gene assays for nuclear receptors related to FXR; assay type: cell-based, human
Excerpt: as §1, §2

[2] = system: kinases that interact with FXR; assay: Kinase inhibition profile, kinases that interact with FXR; assay type: biochemical
human FXR = biological target: T2, human FXR (Homo sapiens, UniProt Q96RI1); assay: Full-length FXR transactivation (reporter gene) assay in HeLa cells; assay type: cell-based
T2 construct: expressed in transfected cells; host or cells: HeLa
T2 sequence (Q96RI1 1-486): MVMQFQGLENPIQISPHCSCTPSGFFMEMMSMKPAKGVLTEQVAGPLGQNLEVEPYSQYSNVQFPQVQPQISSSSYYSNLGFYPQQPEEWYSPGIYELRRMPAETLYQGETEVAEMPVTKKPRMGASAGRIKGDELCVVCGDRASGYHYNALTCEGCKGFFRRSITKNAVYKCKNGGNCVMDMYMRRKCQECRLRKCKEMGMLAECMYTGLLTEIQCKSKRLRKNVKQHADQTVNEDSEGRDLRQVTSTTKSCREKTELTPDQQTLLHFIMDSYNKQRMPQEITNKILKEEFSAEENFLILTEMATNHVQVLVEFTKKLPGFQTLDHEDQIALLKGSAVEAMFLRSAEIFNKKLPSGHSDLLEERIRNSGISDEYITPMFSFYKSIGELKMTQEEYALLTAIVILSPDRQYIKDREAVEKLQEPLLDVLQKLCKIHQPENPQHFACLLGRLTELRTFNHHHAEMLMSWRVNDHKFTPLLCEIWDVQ
T2 sequence (P19793 1-462 partner): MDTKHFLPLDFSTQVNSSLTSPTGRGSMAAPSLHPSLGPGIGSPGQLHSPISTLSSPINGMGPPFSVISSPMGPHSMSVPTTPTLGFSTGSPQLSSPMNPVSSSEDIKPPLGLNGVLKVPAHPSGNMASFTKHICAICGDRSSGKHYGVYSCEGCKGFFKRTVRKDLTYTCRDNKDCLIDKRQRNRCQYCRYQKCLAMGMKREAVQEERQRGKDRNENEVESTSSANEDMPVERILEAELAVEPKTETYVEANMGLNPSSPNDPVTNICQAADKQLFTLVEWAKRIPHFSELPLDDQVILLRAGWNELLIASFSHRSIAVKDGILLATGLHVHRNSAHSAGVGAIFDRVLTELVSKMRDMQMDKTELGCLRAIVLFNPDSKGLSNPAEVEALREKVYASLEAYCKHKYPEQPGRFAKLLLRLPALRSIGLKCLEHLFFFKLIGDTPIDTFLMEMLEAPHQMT

FXR-LBD = assay: Thermal shift assay (SYPRO Orange); assay type: binding; conditions: compound 100 µM alone, 5 µM FXR-LBD; mean ± SEM, n ≥ 4
Experimental: Thermal shift experiments were performed in clear 96-well plates (Invitrogen) using SYPRO Orange (Invitrogen) as dye as described previously[38]. 10 μL of test compound (final concentrations: 3: 100 µM; 16: 100 µM) in assay buffer (10 mM TRIS (pH 8.3), 5 mM DTT, 0.5 mM EDTA, 100 mM NaCl) were mixed with 10 μL of FXR-LBD (final protein concentration 5 µM) in assay buffer and 5 µL of SYPRO Orange (5 × final concentration). Temperature-dependent fluorescence increase reporting protein denaturation was measured in duplicates in an ICycler (Bio-Rad Laboratories, Hercules, CA, USA) from 20 to 90 °C in steps of 0.5 °C per minute at 300 nm excitation and 570 nm emission wavelength. The first derivative of the melting curve was calculated using the Graph Pad Prism 5 software. All curves were determined at least four times in independent experiments.

TGR5 = system: T3, TGR5; assay: TGR5 assay (Eurofins); assay type: cell-based; conditions: 1 and 10 µM
T3 construct: Eurofins (Brussels, Belgium)

c-Kit = assay: Kinase inhibition assay (radiometric or HTRF); assay type: biochemical

CS(=O)(=O)O.CS(=O)(=O)O.CS(=O)(=O)O.CS(=O)(=O)O.Cc1ccc(NC(=O)c2ccc(Cl)cc2)cc1Nc1nccc(-c2cccnc2)n1.Cc1ccc(NC(=O)c2ccc(Cl)cc2)cc1Nc1nccc(-c2cccnc2)n1.O.O.O [compound 16, 4-Chloro-N-(4-methyl-3-(4-(pyridin-3-yl)pyrimidin-2-ylamino)phenyl)benzamide dimesylate-sesquihydrate]
RXR agonistic activity (activation of RXRα-Gal4 chimera receptor) (RXRα): did not activate
Inhibition of Abl (Abl): potent inhibitor
Selectivity over nuclear receptors related to FXR [1]: high selectivity
Inhibition of kinases that interact with FXR [2]: does not markedly inhibit
Effect on transactivation efficacy of FXR agonists 1–3 (human FXR; 16 at 10 µM): significantly enhances
Emax (human FXR; HeLa, read-out: hFXR: max. rel. act.): 8.4%
EC50 (human FXR; full-length reporter gene assay, HeLa cells, mean ± SEM, n ≥ 3, read-out: hFXR: EC50): 1.9 ± 0.6 nM
Effect on EC50-value of 1 (human FXR; in presence of 0.1 µM 16): not affected
Increase of maximum relative activation of 1 (human FXR; in presence of 0.1 µM 16): about 50%
Thermal shift of FXR-LBD melting point (FXR-LBD): −1.0 ± 0.0 °C
TGR5 modulation (agonistic or antagonistic activity) (TGR5): does not modulate
Inhibition of c-Kit (c-Kit): potent inhibitor
